Reference: patent publication US8247211B2, “Glycopeptide antibiotics” (American Cyanamid Company, priority 2001, dated 2012)

Key:
Assay in all cases: In vitro antibacterial evaluation: minimum inhibitory concentration (MIC), broth dilution method
Format in all cases: cell-based
Streptococcus sp. = details: 18 hours at 35° C.
Experimental: (§1) The minimum inhibitory concentration (MIC), the lowest concentration of the antibiotic which inhibits growth of the test organism, is determined by the broth dilution method using Muller-Hinton II […] (Baltimore Biological Laboratories) following the recommendations of the National Committee for Clinical Laboratory Standards [Methods for dilution antimicrobial susceptibility tests for bacteria that grow aerobically, approved standard M7-A2, National Committee for Clinical Laboratory Standards, Villanova, Pa].
(§2) An inoculum level of 5×10^5 CFU/mL, and a range of antibiotic concentrations (64-0.06 μg/mL) is used. […] The test organisms include a spectrum of Gram-positive bacteria comprised of Staphylococcus sp., Streptococcus sp. and Enterococcus sp. These organisms include recent clinical isolates that are resistant to methicillin, penicillin and/or vancomycin.

Escherichia coli = details: 18 hours at 35° C.
Experimental: as §1, §2

Enterococcus sp. = details: 18 hours at 35° C.
Experimental: as §1, §2

Staphylococcus sp. = details: for MIC Staphylococcus aureus-SMITH (GC 4543): strain GC 4543; for MIC Staphylococcus haemolyticus (GC 4546): strain GC 4546; for MIC Coagulase Negative Staphylococcus (GC 4547): strain GC 4547; for MIC Coagulase Negative Staphylococcus (GC 4548): strain GC 4548; for MIC Coagulase Negative Staphylococcus (GC 4549): strain GC 4549; for MIC Coagulase Negative Staphylococcus (GC 4551): strain GC 4551; for MIC Coagulase Negative Staphylococcus (GC 6257): strain GC 6257; for MIC Staphylococcus aureus (ATCC 29213): strain ATCC 29213; for MIC Staphylococcus aureus (GC 1131): strain GC 1131; for MIC Staphylococcus aureus (GC 3051): strain GC 3051; for MIC Staphylococcus aureus (GC 3053): strain GC 3053; for MIC Staphylococcus aureus (GC 4541): strain GC 4541; for MIC Staphylococcus aureus (GC 4542): strain GC 4542; for MIC Staphylococcus aureus (GC 4544): strain GC 4544; for MIC Staphylococcus aureus (GC 4545): strain GC 4545
Experimental: as §1, §2

[1] = broth dilution, inoculum 5×10^5 CFU/mL
[2] = broth dilution, 18 hours at 35° C.

Cyclo[glycyl-4-chloro-β-methylphenylalanyl-O-[4-O-(4,6-O-cyclopentylidenehexopyranosyl)-hexopyranosyl]tyrosyl-3-(2-iminoimidazolidin-4-yl)seryl-3-(3-hexopyranosyl-2-iminoimidazolidin-4-yl)serylseryl] [Example 202]
2 µg/mL: MIC Streptococcus agalactiae (GC 4564) (Streptococcus sp.; Streptococcus agalactiae (GC 4564)) | MIC Streptococcus agalactiae (GC 4564) (Streptococcus sp.; [1]) | MIC Escherichia coli (GC 4560) (Escherichia coli; Escherichia coli (GC 4560)) | MIC Staphylococcus haemolyticus (GC 4546) (Staphylococcus sp.; [2]) | MIC Coagulase Negative Staphylococcus (GC 4547) (Staphylococcus sp.; [2]) | MIC Coagulase Negative Staphylococcus (GC 4548) (Staphylococcus sp.; [2]) | MIC Coagulase Negative Staphylococcus (GC 6257) (Staphylococcus sp.; [2]) | MIC Staphylococcus haemolyticus (GC 4546) (Staphylococcus sp.) | MIC Coagulase Negative Staphylococcus (GC 4547) (Staphylococcus sp.) | MIC Coagulase Negative Staphylococcus (GC 4548) (Staphylococcus sp.) | MIC Coagulase Negative Staphylococcus (GC 6257) (Staphylococcus sp.)
1 µg/mL: MIC Streptococcus pyogenes (GC 4563) (Streptococcus sp.; Streptococcus pyogenes (GC 4563)) | MIC Streptococcus pyogenes (GC 4563) (Streptococcus sp.; [1])
4 µg/mL: MIC Enterococcus faecium (GC 4557) (Enterococcus sp.; Enterococcus faecium (GC 4557)) | MIC Enterococcus faecium (GC 4557) (Enterococcus sp.; [1]) | MIC Staphylococcus aureus-SMITH (GC 4543) (Staphylococcus sp.; [2]) | MIC Coagulase Negative Staphylococcus (GC 4549) (Staphylococcus sp.; [2]) | MIC Coagulase Negative Staphylococcus (GC 4551) (Staphylococcus sp.; [2]) | MIC Staphylococcus aureus (ATCC 29213) (Staphylococcus sp.) | MIC Staphylococcus aureus (ATCC 29213) (Staphylococcus sp.; [2]) | MIC Staphylococcus aureus (GC 1131) (Staphylococcus sp.) | MIC Staphylococcus aureus (GC 1131) (Staphylococcus sp.; [2]) | MIC Staphylococcus aureus (GC 3051) (Staphylococcus sp.) | MIC Staphylococcus aureus (GC 3051) (Staphylococcus sp.; [2]) | MIC Staphylococcus aureus (GC 4541) (Staphylococcus sp.) | MIC Staphylococcus aureus (GC 4541) (Staphylococcus sp.; [2]) | MIC Staphylococcus aureus (GC 4542) (Staphylococcus sp.) | MIC Staphylococcus aureus (GC 4542) (Staphylococcus sp.; [2]) | MIC Staphylococcus aureus-SMITH (GC 4543) (Staphylococcus sp.) | MIC Staphylococcus aureus (GC 4544) (Staphylococcus sp.) | MIC Staphylococcus aureus (GC 4544) (Staphylococcus sp.; [2]) | MIC Staphylococcus aureus (GC 4545) (Staphylococcus sp.) | MIC Staphylococcus aureus (GC 4545) (Staphylococcus sp.; [2]) | MIC Coagulase Negative Staphylococcus (GC 4549) (Staphylococcus sp.) | MIC Coagulase Negative Staphylococcus (GC 4551) (Staphylococcus sp.)
64 µg/mL: MIC Enterococcus faecalis (GC 3059) (Enterococcus sp.; Enterococcus faecalis (GC 3059)) | MIC Enterococcus faecalis (GC 3059) (Enterococcus sp.; [1])
<0.5 µg/mL: MIC Streptococcus pneumoniae (ATCC 6301) (Streptococcus sp.; Streptococcus pneumoniae (ATCC 6301)) | MIC Streptococcus pneumoniae (GC 1894) (Streptococcus sp.; Streptococcus pneumoniae (GC 1894)) | MIC Streptococcus pneumoniae (ATCC 6301) (Streptococcus sp.; [1]) | MIC Streptococcus pneumoniae (GC 1894) (Streptococcus sp.; [1])
32 µg/mL: MIC Escherichia coli (ATCC 25922) (Escherichia coli; Escherichia coli (ATCC 25922)) | MIC Enterococcus avium (GC 4558) (Enterococcus sp.; Enterococcus avium (GC 4558)) | MIC Enterococcus faecalis (ATCC 29212) (Enterococcus sp.; Enterococcus faecalis (ATCC 29212)) | MIC Enterococcus faecalis (GC 4552) (Enterococcus sp.; Enterococcus faecalis (GC 4552)) | MIC Enterococcus faecalis (GC 4553) (Enterococcus sp.; Enterococcus faecalis (GC 4553)) | MIC Enterococcus faecalis (GC 4554) (Enterococcus sp.; Enterococcus faecalis (GC 4554)) | MIC Enterococcus faecium (GC 2243) (Enterococcus sp.; Enterococcus faecium (GC 2243)) | MIC Enterococcus avium (GC 4558) (Enterococcus sp.; [1]) | MIC Enterococcus faecalis (ATCC 29212) (Enterococcus sp.; [1]) | MIC Enterococcus faecalis (GC 4552) (Enterococcus sp.; [1]) | MIC Enterococcus faecalis (GC 4553) (Enterococcus sp.; [1]) | MIC Enterococcus faecalis (GC 4554) (Enterococcus sp.; [1]) | MIC Enterococcus faecium (GC 2243) (Enterococcus sp.; [1])
16 µg/mL: MIC Escherichia coli (GC 4559) (Escherichia coli; Escherichia coli (GC 4559)) | MIC Enterococcus faecalis (GC 2242) (Enterococcus sp.; Enterococcus faecalis (GC 2242)) | MIC Enterococcus faecalis (GC 2691) (Enterococcus sp.; Enterococcus faecalis (GC 2691)) | MIC Enterococcus faecalis (GC 6189) (Enterococcus sp.; Enterococcus faecalis (GC 6189)) | MIC Enterococcus faecium (GC 4556) (Enterococcus sp.; Enterococcus faecium (GC 4556)) | MIC Enterococcus faecalis (GC 2242) (Enterococcus sp.; [1]) | MIC Enterococcus faecalis (GC 2691) (Enterococcus sp.; [1]) | MIC Enterococcus faecalis (GC 6189) (Enterococcus sp.; [1]) | MIC Enterococcus faecium (GC 4556) (Enterococcus sp.; [1])
8 µg/mL: MIC Streptococcus pneumoniae (GC 4565) (Streptococcus sp.; Streptococcus pneumoniae (GC 4565)) | MIC Streptococcus pneumoniae (GC 4565) (Streptococcus sp.; [1]) | MIC Staphylococcus aureus (GC 3053) (Staphylococcus sp.) | MIC Staphylococcus aureus (GC 3053) (Staphylococcus sp.; [2])
